# From patent US20080200442A1, “Compositions and Methods for Treating, Reducing, Ameliorating, or Preventing Infections of the Ear or Upper Respiratory Tract” (priority 2007, published 2008)
# What was measured:
# Assay type in all cases: cell-based
# Corynebacterium species = experiment: In vitro anti-bacterial activity (MIC90), ophthalmologic clinical bacteria isolates; conditions: Gram-positive
# [1] = system: Gentamycin-resistant Pseudomonas aeruginosa; experiment: as above
# Moraxella species = experiment: as above; conditions: Gram-negative
# Streptococcus pneumoniae = experiment: as above; conditions: Gram-positive
# [2] = system: Gentamycin-resistant Staphylococcus aureus; experiment: as above
# Staphylococcus aureus = experiment: as above; conditions: Gram-positive
# [3] = system: Ofloxacin-resistant Staphylococcus aureus; experiment: as above
# Haemophilus influenzae = experiment: as above; conditions: Gram-negative
# Pseudomonas aeruginosa = experiment: as above; conditions: Gram-negative
# Propionibacterium acnes = experiment: as above; conditions: Cutibacterium acnes, Gram-positive
# [4] = system: Coagulase-negative Staphylococcus; experiment: as above; conditions: Gram-positive
# [5] = system: Penicillin-resistant Streptococcus pneumoniae; experiment: as above
# [6] = system: Veillonella parvula (GAI 5602); experiment: In vitro anti-bacterial activity (MIC90), anaerobic reference bacteria
# [7] = system: Bacteroides thetaiotaomicron (GAI 0659); experiment: as above; conditions: Bacteroides thetaiotaomicron
# [8] = system: Bacteroides fragillis (GAI 0675); experiment: as above
# [9] = system: Peptostreptococcus micros (GIFU 7824); experiment: as above; conditions: Parvimonas micra
# [10] = system: Staphylococcus aureus (No. 420); experiment: In vitro anti-bacterial activity (MIC90), methicillin-resistant Staphylococcus aureus isolates; conditions: methicillin-resistant Staphylococcus aureus (No. 420)
# Protocol: (§1) Anti-bacterial activity of the compound having Formula III was tested against several Gram-negative reference bacteria strains and compared to the anti-bacterial activity of three commercially available antibiotics (nadifloxacin, ofloxacin, and sparfloxacin). The results are shown in Table 2 as MIC90 values (minimum concentration of the active compound required to inhibit ninety percent of the growth of a specified pathogen, in μg/ml).
# (§2) Anti-bacterial activity of the compound having Formula III was tested against some methicillin-resistant Staphylococcus aureus bacteria strains and compared to the anti-bacterial activity of three commercially available antibiotics (nadifloxacin, ofloxacin, and sparfloxacin).
# [11] = system: Staphylococcus aureus (No. 419); experiment: as above; conditions: methicillin-resistant Staphylococcus aureus (No. 419)
# Protocol: as §1, §2
# [12] = system: Staphylococcus aureus (No. 415); experiment: as above; conditions: methicillin-resistant Staphylococcus aureus (No. 415)
# Protocol: as §1, §2
# [13] = system: Staphylococcus aureus (ATCC 33591); experiment: as above; conditions: ATCC33591; methicillin-resistant Staphylococcus aureus (ATCC 33591)
# Protocol: as §1, §2
# [14] = system: Staphylococcus aureus (ATCC 33593); experiment: as above; conditions: ATCC33593; methicillin-resistant Staphylococcus aureus (ATCC 33593)
# Protocol: as §1, §2
# [15] = system: Staphylococcus aureus (ATCC 33592); experiment: as above; conditions: ATCC33592; methicillin-resistant Staphylococcus aureus (ATCC 33592)
# Protocol: as §1, §2
# [16] = system: Staphylococcus aureus (No. 421); experiment: as above; conditions: methicillin-resistant Staphylococcus aureus (No. 421)
# Protocol: as §1, §2
# [17] = system: Staphylococcus aureus (No. 395); experiment: as above; conditions: methicillin-resistant Staphylococcus aureus (No. 395)
# Protocol: as §1, §2
# [18] = system: Bacillis subtilis (ATCC 6633); experiment: In vitro anti-bacterial activity (MIC90), Gram-positive reference strains
# Protocol: as §1, with “μg/ml). Anti-bacterial activity of the compound having Formula III was tested against several Gram-positive reference bacteria strains and compared to the anti-bacterial activity of three commercially available antibiotics (nadifloxacin, ofloxacin, and sparfloxacin).” for “μg/ml).”
# [19] = system: Streptococcus pyogenes (IID 698); experiment: as above; conditions: IID698
# Protocol: as §1, with “μg/ml). Anti-bacterial activity of the compound having Formula III was tested against several Gram-positive reference bacteria strains and compared to the anti-bacterial activity of three commercially available antibiotics (nadifloxacin, ofloxacin, and sparfloxacin).” for “μg/ml).”
# [20] = system: Streptococcus faecalis (IFO 12964); experiment: as above; conditions: Enterococcus faecalis, IFO12964
# Protocol: as §1, with “μg/ml). Anti-bacterial activity of the compound having Formula III was tested against several Gram-positive reference bacteria strains and compared to the anti-bacterial activity of three commercially available antibiotics (nadifloxacin, ofloxacin, and sparfloxacin).” for “μg/ml).”
# [21] = system: Staphylococcus aureus (FDA 209P); experiment: as above; conditions: FDA209P
# Protocol: as §1, with “μg/ml). Anti-bacterial activity of the compound having Formula III was tested against several Gram-positive reference bacteria strains and compared to the anti-bacterial activity of three commercially available antibiotics (nadifloxacin, ofloxacin, and sparfloxacin).” for “μg/ml).”
# [22] = system: Sarcina lutea (ATCC 9341); experiment: as above; conditions: Micrococcus luteus, ATCC9341
# Protocol: as §1, with “μg/ml). Anti-bacterial activity of the compound having Formula III was tested against several Gram-positive reference bacteria strains and compared to the anti-bacterial activity of three commercially available antibiotics (nadifloxacin, ofloxacin, and sparfloxacin).” for “μg/ml).”
# [23] = system: Staphylococcus aureus (ATCC 25933); experiment: as above; conditions: ATCC25933
# Protocol: as §1, with “μg/ml). Anti-bacterial activity of the compound having Formula III was tested against several Gram-positive reference bacteria strains and compared to the anti-bacterial activity of three commercially available antibiotics (nadifloxacin, ofloxacin, and sparfloxacin).” for “μg/ml).”
# [24] = system: Streptococcus faecalis (ATCC 29212); experiment: as above; conditions: Enterococcus faecalis, ATCC29212
# Protocol: as §1, with “μg/ml). Anti-bacterial activity of the compound having Formula III was tested against several Gram-positive reference bacteria strains and compared to the anti-bacterial activity of three commercially available antibiotics (nadifloxacin, ofloxacin, and sparfloxacin).” for “μg/ml).”
# [25] = system: Streptococcus pyogenes (Cook); experiment: as above
# Protocol: as §1, with “μg/ml). Anti-bacterial activity of the compound having Formula III was tested against several Gram-positive reference bacteria strains and compared to the anti-bacterial activity of three commercially available antibiotics (nadifloxacin, ofloxacin, and sparfloxacin).” for “μg/ml).”
# [26] = system: Streptococcus pneumoniae (IID 553); experiment: as above; conditions: IID553
# Protocol: as §1, with “μg/ml). Anti-bacterial activity of the compound having Formula III was tested against several Gram-positive reference bacteria strains and compared to the anti-bacterial activity of three commercially available antibiotics (nadifloxacin, ofloxacin, and sparfloxacin).” for “μg/ml).”
# [27] = system: Staphylococcus aureus (Smith); experiment: as above
# Protocol: as §1, with “μg/ml). Anti-bacterial activity of the compound having Formula III was tested against several Gram-positive reference bacteria strains and compared to the anti-bacterial activity of three commercially available antibiotics (nadifloxacin, ofloxacin, and sparfloxacin).” for “μg/ml).”
# [28] = system: Streptococcus pneniae (IID 554); experiment: as above; conditions: IID554
# Protocol: as §1, with “μg/ml). Anti-bacterial activity of the compound having Formula III was tested against several Gram-positive reference bacteria strains and compared to the anti-bacterial activity of three commercially available antibiotics (nadifloxacin, ofloxacin, and sparfloxacin).” for “μg/ml).”
# [29] = system: Staphylococcus epidermidis (ATCC 12228); experiment: as above; conditions: ATCC12228
# Protocol: as §1, with “μg/ml). Anti-bacterial activity of the compound having Formula III was tested against several Gram-positive reference bacteria strains and compared to the anti-bacterial activity of three commercially available antibiotics (nadifloxacin, ofloxacin, and sparfloxacin).” for “μg/ml).”
# [30] = system: Salmonella typhimurium (TD); experiment: In vitro anti-bacterial activity (MIC90), Gram-negative reference strains
# Protocol: Anti-bacterial activity of the compound having Formula III was tested against several Gram-negative reference bacteria strains and compared to the anti-bacterial activity of three commercially available antibiotics (nadifloxacin, ofloxacin, and sparfloxacin).
# [31] = system: Propionibacterium acnes (ATCC 6919); experiment: In vitro anti-bacterial activity (MIC90), anaerobic reference bacteria; conditions: Cutibacterium acnes, ATCC6919
# [32] = system: Propionibacterium acnes (GAI 5419); experiment: as above; conditions: Cutibacterium acnes
# [33] = system: Clostridium perfringens (KZ 210); experiment: microbe, parasite or virus in culture
# [34] = system: Bacteroides vulgatus (GAI 0673); experiment: In vitro anti-bacterial activity (MIC90), anaerobic reference bacteria; conditions: Phocaeicola vulgatus
# [35] = system: Peptostreptococcus magnum (GAI 0664); experiment: as above
# [36] = system: Propionibacterium acnes (ATCC 11828); experiment: as above; conditions: Cutibacterium acnes, ATCC11828
smiles,measurement,setting,value
CCn1cc(C(=O)O)c(=O)c2cc(F)c(N3CCNCC3)cc21 [Norfloxacin],MIC90,Corynebacterium species,16 µg/mL
same,MIC90,[1],128 µg/mL
same,MIC90,Moraxella species,0.25 µg/mL
same,MIC90,Streptococcus pneumoniae,8 µg/mL
same,MIC90,[2],128 µg/mL
same,MIC90,Staphylococcus aureus,> 128 µg/mL
same,MIC90,[3],> 128 µg/mL
same,MIC90,Haemophilus influenzae,≤ 0.06 µg/mL
same,MIC90,Pseudomonas aeruginosa,4 µg/mL
same,MIC90,Propionibacterium acnes,4 µg/mL
same,MIC90,[4],128 µg/mL
same,MIC90,[5],8 µg/mL
CC1COc2c(N3CCN(C)CC3)c(F)cc3c(=O)c(C(=O)O)cn1c23 (centres unmarked) [Ofloxacin],MIC90,[6],0.39 µg/mL
same,MIC90,Corynebacterium species,32 µg/mL
same,MIC90,[1],64 µg/mL
same,MIC90,[7],3.13 µg/mL
same,MIC90,[8],1.56 µg/mL
same,MIC90,[9],0.78 µg/mL
same,MIC90,Moraxella species,0.13 µg/mL
same,MIC90,Streptococcus pneumoniae,2 µg/mL
same,MIC90,[10],1.56 µg/mL
same,MIC90,[11],3.13 µg/mL
same,MIC90,[12],0.78 µg/mL
same,MIC90,[13],0.05 µg/mL
same,MIC90,[14],0.2 µg/mL
same,MIC90,[15],0.39 µg/mL
same,MIC90,[16],1.56 µg/mL
same,MIC90,[17],0.2 µg/mL
same,MIC90,[18],0.05 µg/mL
same,MIC90,[19],0.39 µg/mL
same,MIC90,[20],1.56 µg/mL
same,MIC90,[21],0.2 µg/mL
same,MIC90,[22],3.13 µg/mL
same,MIC90,[23],0.39 µg/mL
same,MIC90,[24],1.56 µg/mL
same,MIC90,[25],0.78 µg/mL
same,MIC90,[26],1.56 µg/mL
same,MIC90,[27],0.2 µg/mL
same,MIC90,[28],1.56 µg/mL
same,MIC90,[29],0.78 µg/mL
same,MIC90,[30],0.05 mμg/mL
same,MIC90,[31],0.78 µg/mL
same,MIC90,[2],128 µg/mL
same,MIC90,[32],0.78 µg/mL
same,MIC90,[33],0.78 µg/mL
same,MIC90,Staphylococcus aureus,32 µg/mL
same,MIC90,[34],3.13 µg/mL
same,MIC90,[35],0.39 µg/mL
same,MIC90,[3],> 128 µg/mL
same,MIC90,[36],1.56 µg/mL
same,MIC90,Haemophilus influenzae,≤ 0.06 µg/mL
same,MIC90,Pseudomonas aeruginosa,4 µg/mL
same,MIC90,Propionibacterium acnes,1 µg/mL
same,MIC90,[4],8 µg/mL
same,MIC90,[5],2 µg/mL
C[C@@H]1CN(c2c(F)c(N)c3c(=O)c(C(=O)O)cn(C4CC4)c3c2F)C[C@H](C)N1 [Sparfloxacin],MIC90,[6],0.2 µg/mL
same,MIC90,[7],0.78 µg/mL
same,MIC90,[8],0.78 µg/mL
same,MIC90,[9],0.78 µg/mL
same,MIC90,[10],0.78 µg/mL
same,MIC90,[11],1.56 µg/mL
same,MIC90,[12],0.2 µg/mL
same,MIC90,[13],0.024 µg/mL
same,MIC90,[14],0.024 µg/mL
same,MIC90,[15],0.1 µg/mL
same,MIC90,[16],0.39 µg/mL
same,MIC90,[17],0.05 µg/mL
same,MIC90,[18],0.024 µg/mL
same,MIC90,[19],0.2 µg/mL
same,MIC90,[20],0.78 µg/mL
same,MIC90,[21],0.024 µg/mL
same,MIC90,[22],1.56 µg/mL
same,MIC90,[23],0.1 µg/mL
same,MIC90,[24],0.39 µg/mL
same,MIC90,[25],0.39 µg/mL
same,MIC90,[26],0.39 µg/mL
same,MIC90,[27],0.05 µg/mL
same,MIC90,[28],0.39 µg/mL
same,MIC90,[29],0.2 µg/mL
same,MIC90,[30],0.012 mμg/mL
same,MIC90,[31],0.39 µg/mL
same,MIC90,[32],0.39 µg/mL
same,MIC90,[33],0.39 µg/mL
same,MIC90,[34],0.78 µg/mL
same,MIC90,[35],0.1 µg/mL
same,MIC90,[36],0.78 µg/mL
